Data from PubChem BioAssay (NCI).
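Following 48 hours of exposure in 96-well plates, responses at five concentrations were used to interpolate endpoints linearly. At the TGI there is no net growth.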

Key:
Experiment in all cases: NCI anticancer screen, dose series, 48 h
OVCAR-4 ovarian = test system: OVCAR-4 ovarian
786-0 renal = test system: 786-0 renal
EKVX NSCLC = test system: EKVX NSCLC
MOLT-4 leukemia = test system: MOLT-4 leukemia
SF-539 CNS = test system: SF-539 CNS
CAKI-1 renal = test system: CAKI-1 renal
HOP-92 NSCLC = test system: HOP-92 NSCLC
RXF 393 renal = test system: RXF 393 renal
KM12 colon = test system: KM12 colon
SW-620 colon = test system: SW-620 colon
OVCAR-5 ovarian = test system: OVCAR-5 ovarian
A498 renal = test system: A498 renal
UACC-62 melanoma = test system: UACC-62 melanoma
CCRF-CEM leukemia = test system: CCRF-CEM leukemia
SF-268 CNS = test system: SF-268 CNS
PC-3 prostate = test system: PC-3 prostate
T-47D breast = test system: T-47D breast
OVCAR-3 ovarian = test system: OVCAR-3 ovarian
SK-MEL-2 melanoma = test system: SK-MEL-2 melanoma
HL-60(TB) leukemia = test system: HL-60(TB) leukemia
HS 578T breast = test system: HS 578T breast
MDA-N = test system: MDA-N
MCF7 breast = test system: MCF7 breast
MDA-MB-231 breast = test system: MDA-MB-231 breast
UO-31 renal = test system: UO-31 renal
SF-295 CNS = test system: SF-295 CNS
RPMI-8226 leukemia = test system: RPMI-8226 leukemia
HCC-2998 colon = test system: HCC-2998 colon
NCI/ADR-RES ovarian = test system: NCI/ADR-RES ovarian
SNB-19 CNS = test system: SNB-19 CNS
HCT-116 colon = test system: HCT-116 colon
HCT-15 colon = test system: HCT-15 colon
SK-MEL-28 melanoma = test system: SK-MEL-28 melanoma
IGROV1 ovarian = test system: IGROV1 ovarian
NCI-H460 lung = test system: NCI-H460 lung
SNB-75 CNS = test system: SNB-75 CNS
COLO 205 colon = test system: COLO 205 colon
HT29 colon = test system: HT29 colon
LOX IMVI melanoma = test system: LOX IMVI melanoma
UACC-257 melanoma = test system: UACC-257 melanoma
A549 NSCLC = test system: A549 NSCLC
MALME-3M melanoma = test system: MALME-3M melanoma
K-562 leukemia = test system: K-562 leukemia
TK-10 renal = test system: TK-10 renal
DU-145 prostate = test system: DU-145 prostate
SK-MEL-5 melanoma = test system: SK-MEL-5 melanoma
NCI-H23 lung = test system: NCI-H23 lung
OVCAR-8 ovarian = test system: OVCAR-8 ovarian
SK-OV-3 ovarian = test system: SK-OV-3 ovarian
M14 melanoma = test system: M14 melanoma
SR leukemia = test system: SR leukemia
U251 CNS = test system: U251 CNS
ACHN renal = test system: ACHN renal
MDA-MB-435 = test system: MDA-MB-435
NCI-H226 lung = test system: NCI-H226 lung
BT-549 breast = test system: BT-549 breast
NCI-H522 lung = test system: NCI-H522 lung
SN12C renal = test system: SN12C renal
HOP-62 NSCLC = test system: HOP-62 NSCLC

Compound: CN(C(=O)CCC(=O)O)c1ccccc1C(=O)O
- TGI (OVCAR-4 ovarian): > 100 µM
- TGI (786-0 renal): > 100 µM
- TGI (EKVX NSCLC): > 100 µM
- TGI (MOLT-4 leukemia): > 100 µM
- TGI (SF-539 CNS): > 100 µM
- TGI (CAKI-1 renal): > 100 µM
- TGI (HOP-92 NSCLC): > 100 µM
- TGI (RXF 393 renal): > 100 µM
- TGI (KM12 colon): > 100 µM
- TGI (SW-620 colon): > 100 µM
- TGI (OVCAR-5 ovarian): > 100 µM
- TGI (A498 renal): > 100 µM
- TGI (UACC-62 melanoma): > 100 µM
- TGI (CCRF-CEM leukemia): > 100 µM
- TGI (SF-268 CNS): > 100 µM
- TGI (PC-3 prostate): > 100 µM
- TGI (T-47D breast): > 100 µM
- TGI (OVCAR-3 ovarian): > 100 µM
- TGI (SK-MEL-2 melanoma): > 100 µM
- TGI (HL-60(TB) leukemia): > 100 µM
- TGI (HS 578T breast): > 100 µM
- TGI (MDA-N): > 100 µM
- TGI (MCF7 breast): > 100 µM
- TGI (MDA-MB-231 breast): > 100 µM
- TGI (UO-31 renal): > 100 µM
- TGI (SF-295 CNS): > 100 µM
- TGI (RPMI-8226 leukemia): > 100 µM
- TGI (HCC-2998 colon): > 100 µM
- TGI (NCI/ADR-RES ovarian): > 100 µM
- TGI (SNB-19 CNS): > 100 µM
- TGI (HCT-116 colon): > 100 µM
- TGI (HCT-15 colon): > 100 µM
- TGI (SK-MEL-28 melanoma): > 100 µM
- TGI (IGROV1 ovarian): > 100 µM
- TGI (NCI-H460 lung): > 100 µM
- TGI (SNB-75 CNS): > 100 µM
- TGI (COLO 205 colon): > 100 µM
- TGI (HT29 colon): > 100 µM
- TGI (LOX IMVI melanoma): > 100 µM
- TGI (UACC-257 melanoma): > 100 µM
- TGI (A549 NSCLC): > 100 µM
- TGI (MALME-3M melanoma): > 100 µM
- TGI (K-562 leukemia): > 100 µM
- TGI (TK-10 renal): > 100 µM
- TGI (DU-145 prostate): > 100 µM
- TGI (SK-MEL-5 melanoma): > 100 µM
- TGI (NCI-H23 lung): > 100 µM
- TGI (OVCAR-8 ovarian): > 100 µM
- TGI (SK-OV-3 ovarian): > 100 µM
- TGI (M14 melanoma): > 100 µM
- TGI (SR leukemia): > 100 µM
- TGI (U251 CNS): > 100 µM
- TGI (ACHN renal): > 100 µM
- TGI (MDA-MB-435): > 100 µM
- TGI (NCI-H226 lung): > 100 µM
- TGI (BT-549 breast): > 100 µM

Compound: CC1=C(C(=O)N[C@@H](CC(C)C)C(=O)O)N2C(=O)[C@@H](NC(=O)[C@@H](N)Cc3ccccc3)[C@H]2SC1
- TGI (OVCAR-4 ovarian): > 100 µM
- TGI (786-0 renal): > 100 µM
- TGI (EKVX NSCLC): > 100 µM
- TGI (MOLT-4 leukemia): > 100 µM
- TGI (SF-539 CNS): > 100 µM
- TGI (CAKI-1 renal): > 100 µM
- TGI (HOP-92 NSCLC): > 100 µM
- TGI (RXF 393 renal): > 100 µM
- TGI (KM12 colon): > 100 µM
- TGI (SW-620 colon): > 100 µM
- TGI (NCI-H522 lung): > 100 µM
- TGI (OVCAR-5 ovarian): > 100 µM
- TGI (A498 renal): > 100 µM
- TGI (UACC-62 melanoma): > 100 µM
- TGI (CCRF-CEM leukemia): > 100 µM
- TGI (SF-268 CNS): > 100 µM
- TGI (PC-3 prostate): > 100 µM
- TGI (T-47D breast): > 100 µM
- TGI (OVCAR-3 ovarian): > 100 µM
- TGI (SK-MEL-2 melanoma): > 100 µM
- TGI (SN12C renal): > 100 µM
- TGI (HL-60(TB) leukemia): > 100 µM
- TGI (HS 578T breast): > 100 µM
- TGI (MDA-N): > 100 µM
- TGI (MCF7 breast): > 100 µM
- TGI (MDA-MB-231 breast): > 100 µM
- TGI (SF-295 CNS): > 100 µM
- TGI (RPMI-8226 leukemia): > 100 µM
- TGI (HCC-2998 colon): > 100 µM
- TGI (NCI/ADR-RES ovarian): > 100 µM
- TGI (SNB-19 CNS): > 100 µM
- TGI (HCT-15 colon): > 100 µM
- TGI (SK-MEL-28 melanoma): > 100 µM
- TGI (IGROV1 ovarian): > 100 µM
- TGI (NCI-H460 lung): > 100 µM
- TGI (SNB-75 CNS): > 100 µM
- TGI (COLO 205 colon): > 100 µM
- TGI (LOX IMVI melanoma): > 100 µM
- TGI (UACC-257 melanoma): > 100 µM
- TGI (A549 NSCLC): > 100 µM
- TGI (MALME-3M melanoma): > 100 µM
- TGI (K-562 leukemia): > 100 µM
- TGI (TK-10 renal): > 100 µM
- TGI (DU-145 prostate): > 100 µM
- TGI (SK-MEL-5 melanoma): > 100 µM
- TGI (OVCAR-8 ovarian): > 100 µM
- TGI (M14 melanoma): > 100 µM
- TGI (SR leukemia): > 100 µM
- TGI (U251 CNS): > 100 µM
- TGI (ACHN renal): > 100 µM
- TGI (MDA-MB-435): > 100 µM
- TGI (NCI-H226 lung): > 100 µM
- TGI (BT-549 breast): > 100 µM

Compound: COc1cc([C@@H]2C3C(=O)c4ccccc4C3[C@@H](c3cc(OC)c(OC)c(OC)c3)C23Cc2ccccc2C3=O)cc(OC)c1OC (stereo partly specified)
- TGI (OVCAR-4 ovarian): > 100 µM
- TGI (786-0 renal): > 100 µM
- TGI (EKVX NSCLC): > 100 µM
- TGI (MOLT-4 leukemia): > 100 µM
- TGI (SF-539 CNS): > 100 µM
- TGI (CAKI-1 renal): 7.85 µM
- TGI (HOP-92 NSCLC): > 100 µM
- TGI (RXF 393 renal): > 100 µM
- TGI (KM12 colon): > 100 µM
- TGI (SW-620 colon): > 100 µM
- TGI (NCI-H522 lung): > 100 µM
- TGI (OVCAR-5 ovarian): > 100 µM
- TGI (A498 renal): > 100 µM
- TGI (CCRF-CEM leukemia): > 100 µM
- TGI (SF-268 CNS): > 100 µM
- TGI (PC-3 prostate): > 100 µM
- TGI (T-47D breast): > 100 µM
- TGI (OVCAR-3 ovarian): > 100 µM
- TGI (SN12C renal): > 100 µM
- TGI (HL-60(TB) leukemia): > 100 µM
- TGI (HS 578T breast): > 100 µM
- TGI (MDA-N): > 100 µM
- TGI (MCF7 breast): > 100 µM
- TGI (MDA-MB-231 breast): > 100 µM
- TGI (UO-31 renal): > 100 µM
- TGI (SF-295 CNS): > 100 µM
- TGI (RPMI-8226 leukemia): > 100 µM
- TGI (HCC-2998 colon): > 100 µM
- TGI (NCI/ADR-RES ovarian): > 100 µM
- TGI (SNB-19 CNS): > 100 µM
- TGI (HCT-116 colon): > 100 µM
- TGI (HCT-15 colon): > 100 µM
- TGI (SK-MEL-28 melanoma): > 100 µM
- TGI (IGROV1 ovarian): > 100 µM
- TGI (NCI-H460 lung): > 100 µM
- TGI (SNB-75 CNS): > 100 µM
- TGI (COLO 205 colon): > 100 µM
- TGI (HT29 colon): > 100 µM
- TGI (LOX IMVI melanoma): > 100 µM
- TGI (UACC-257 melanoma): > 100 µM
- TGI (A549 NSCLC): > 100 µM
- TGI (MALME-3M melanoma): > 100 µM
- TGI (K-562 leukemia): > 100 µM
- TGI (HOP-62 NSCLC): > 100 µM
- TGI (TK-10 renal): > 100 µM
- TGI (DU-145 prostate): > 100 µM
- TGI (SK-MEL-5 melanoma): > 100 µM
- TGI (NCI-H23 lung): > 100 µM
- TGI (OVCAR-8 ovarian): > 100 µM
- TGI (SK-OV-3 ovarian): > 100 µM
- TGI (M14 melanoma): > 100 µM
- TGI (SR leukemia): > 100 µM
- TGI (U251 CNS): > 100 µM
- TGI (ACHN renal): > 100 µM
- TGI (MDA-MB-435): > 100 µM
- TGI (NCI-H226 lung): > 100 µM
- TGI (BT-549 breast): > 100 µM
